Consider 30 compounds from patent publication US20240132464A1, “HETEROCYCLIC COMPOUNDS AS E3 LIGASE INHIBITORS” (Accutar Biotechnology Inc., priority 2022, published 2024).

Bounds are passed on as bounds.

In this assay the target is T1, GID4 (Uniprot ID: Q81VV7, residues 124-289) (Homo sapiens, UniProt Q8IVV7).
T1 construct: GID4 (Uniprot ID: Q81VV7, residues 124-289)
T1 sequence (Q8IVV7 124-289): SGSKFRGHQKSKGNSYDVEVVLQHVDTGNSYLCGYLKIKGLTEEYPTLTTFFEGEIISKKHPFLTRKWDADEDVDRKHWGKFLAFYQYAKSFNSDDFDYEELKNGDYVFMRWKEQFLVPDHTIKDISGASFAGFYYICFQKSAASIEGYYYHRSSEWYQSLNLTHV
Briefly: GID4 competitive binding assay (AlphaScreen, GID4/degron peptide PGLW). The conditions noted are these: 24 nM GID4, 48 nM biotinylated degron peptide PGLW, 4° C., read-out: IC50 (Inhibition of GID4/Degron binding by test compounds). How it is done: GID4 Competitive Binding Assay
GID4 binding affinity of compounds disclosed herein was measured by monitoring the interaction of GID4 with its degron peptide (PGLW) in the presence of the test compounds. A truncated version of GID4 (Uniprot ID: Q81VV7, residues 124-289) with a 6*His at its C-terminus was used in this assay. Tetrapeptide, PGLW, was synthesized and tagged with an additional lysine labeled with biotin at its sidechain.
GID4 competitive binding assays were performed in a 384-well plate at 4° C. in a 20 μL reaction volume. Briefly, 24 nM GID4 (final concentration) proteins were pre-incubated with 48 nM biotinylated degron peptide (final concentration) in an assay buffer containing 20 mM HEPES, pH 7.5, 100 mM NaCl, 1 mM DTT, 0.1% Tween-20, and 0.05% BSA in the presence of the test compound in 2% DMSO (final concentration) at various concentrations for 2 h. 5 ug/ml Streptavidin ALphaScreen donor beads and 5 ug/ml nickel chelate (Ni-NTA) ALphaScreen acceptor beads (PerkinElmer, 6760619C) (final concentrations) were then added to the mixture. After an incubation of 1 h at 4° C., the fluorescent signals were obtained on the EnVision® 2105 Multilabel Plate Reader (PerkinElmer).
Raw ALphaScreen data were converted to a percentage of inhibition (relative to DMSO) using the following equations: […]
For a given test compound concentration X:
Signal (X)=Signal (GID4 & peptide & compound)−Signal (GID4 & buffer & compound)
Percentage of inhibition at concentration X=[1−Signal(X)/Signal (DMSO)]*100% b)
The IC50 values were determined by nonlinear regression of plots of [inhibitor] vs. percentage of inhibition with variable slope.
Table 3 summarizes the inhibition of binding between GID4 and degron peptide with compounds of the present disclosure. Compounds were ranked into bins as follows for IC50: A indicates <500 nM; B indicates 500 nM-5000 nM; C indicates >5000 nM.
In general terms: Bead proximity is the source of the signal in Alpha formats.
As to `Nc1nc(N2CCOC(c3ccccc3Br)C2)c2cc[nH]c2n1` (single isomer, unassigned) [Compound 39, (R/S)-4-(2-(2-bromophenyl)morpholino)-7H-pyrrolo[2,3-d]pyrimidin-2-amine], the IC50 was > 5 µM.

In the case of `Nc1nc(N2CCNC(c3ccccc3Br)C2)c2[nH]ccc2n1` (single isomer, unassigned) [Compound 42, (R/S)-4-(3-(2-bromophenyl)piperazin-1-yl)-5H-pyrrolo[3,2-d]pyrimidin-2-amine], the IC50 is > 5 µM.

As for `Nc1nc(NC2CC2)cc(N2CCN(CCO)C(c3ccccc3Br)C2)n1` (single isomer, unassigned) [Compound 44, (R/S)-2-(4-(2-amino-6-(cyclopropylamino)pyrimidin-4-yl)-2-(2-bromophenyl)piperazin-1-yl)ethan-1-ol], the IC50 fell in the range of 0.5 to 5 µM.

On to `Nc1nc(N2CCOC(c3ccccc3Br)C2)c2[nH]ccc2n1` (single isomer, unassigned) [Compound 46, (R/S)-4-(2-(2-bromophenyl)morpholino)-5H-pyrrolo[3,2-d]pyrimidin-2-amine], for which the IC50 was in the range of 0.5 to 5 µM.

Consider `Nc1nc(N)c(F)c(N2CCOC(c3ccccc3Br)C2)n1` (single isomer, unassigned) [Compound 48, (S/R)-6-(2-(2-bromophenyl)morpholino)-5-fluoropyrimidine-2,4-diamine], for which the IC50 is > 5 µM.

Take `Nc1nc(N)c(F)c(N2CCOC(c3ccccc3Br)C2)n1` (single isomer, unassigned) [Compound 49, (R/S)-6-(2-(2-bromophenyl)morpholino)-5-fluoropyrimidine-2,4-diamine]: the IC50 is > 5 µM.

As for `CN1CCN(c2ccc(Br)c(C3CN(c4cc(N)nc(N)n4)CCN3)c2)CC1` (single isomer, unassigned) [Compound 50, R or S 6-(3-(2-bromo-5-(4-methylpiperazin-1-yl)phenyl)piperazin-1-yl)pyrimidine-2,4-diamine], the IC50 was < 0.5 µM.

Consider `CN1CCN(c2ccc(Br)c(C3CN(c4cc(N)nc(N)n4)CCN3)c2)CC1` (single isomer, unassigned) [Compound 51, R or S 6-(3-(2-bromo-5-(4-methylpiperazin-1-yl)phenyl)piperazin-1-yl)pyrimidine-2,4-diamine], for which the IC50 lay within 0.5 to 5 µM.

Take `Nc1nc(N2CCNC(c3ccccc3Br)C2)c2cc[nH]c2n1` (single isomer, unassigned) [Compound 56, (R/S)-4-(3-(2-bromophenyl)piperazin-1-yl)-7H-pyrrolo[2,3-d]pyrimidin-2-amine]: the IC50 is 0.5 to 5 µM.

For `CC(C)c1nc(N)cc(N2CCOC(c3ccccc3Br)C2)n1` (single isomer, unassigned) [Compound 73, (R/S)-6-(2-(2-bromophenyl)morpholino)-2-isopropylpyrimidin-4-amine], the IC50 lay in the range of 0.5 to 5 µM.

With `CC(C)c1nc(N)cc(N2CCNC(c3ccccc3Br)C2)n1` (single isomer, unassigned) [Compound 76, (R/S)-6-(3-(2-bromophenyl)piperazin-1-yl)-2-isopropylpyrimidin-4-amine], the IC50 was < 0.5 µM.

With `Nc1nc(NCC2CC2)cc(N2CCOC(c3ccccc3Br)C2)n1` (single isomer, unassigned) [Compound 77, R or S-6-(2-(2-bromophenyl)morpholino)-N^4-(cyclopropylmethyl)pyrimidine-2,4-diamine], the IC50 was > 5 µM.

Regarding `Nc1nc(NCC2CC2)cc(N2CCOC(c3ccccc3Br)C2)n1` (single isomer, unassigned) [Compound 78, R or S-6-(2-(2-bromophenyl)morpholino)-N^4-(cyclopropylmethyl)pyrimidine-2,4-diamine], the IC50 was < 0.5 µM.

Regarding `Nc1nc(NC2CC2)cc(N2CCOC(c3ccccc3)C2)n1` (single isomer, unassigned) [Compound 96, (R/S)-N4-cyclopropyl-6-(2-phenylmorpholino)pyrimidine-2,4-diamine], the IC50 was > 5 µM.

Turning to `CN1CCN(c2cc(NCC3CC3)nc(N)n2)CC1c1ccccc1Br` (single isomer, unassigned) [Compound 99, (R/S)-6-(3-(2-bromophenyl)-4-methylpiperazin-1-yl)-N4-(cyclopropylmethyl)pyrimidine-2,4-diamine], the IC50 is < 0.5 µM.

Consider `Nc1nc(C2CC2)cc(N2CCNC(c3cnc4ccccn34)C2)n1` (single isomer, unassigned) [Compound 103, (S/R)-4-cyclopropyl-6-(3-(imidazo[1,2-a]pyridin-3-yl)piperazin-1-yl)pyrimidin-2-amine], for which the IC50 was in the range of 0.5 to 5 µM.

In the case of `Nc1nc(C2CC2)cc(N2CCNC(c3cnc4ccccn34)C2)n1` (single isomer, unassigned) [Compound 104, (R/S)-4-cyclopropyl-6-(3-(imidazo[1,2-a]pyridin-3-yl)piperazin-1-yl)pyrimidin-2-amine], the IC50 is > 5 µM.

For the compound `CC(C)c1cc(N2CCN(C)C(c3cnc4ccccn34)C2)nc(N)n1` (single isomer, unassigned) [Compound 105, (S/R)-4-(3-(imidazo[1,2-a]pyridin-3-yl)-4-methylpiperazin-1-yl)-6-isopropylpyrimidin-2-amine], the IC50 is > 5 µM.

Consider `CNc1cc(N2CCOC(c3ccccc3)C2)nc(N)n1` (single isomer, unassigned) [Compound 108, (R/S)-N4-methyl-6-(2-phenylmorpholino)pyrimidine-2,4-diamine], for which the IC50 is > 5 µM.

Take `Nc1nc(NCC2CC2)cc(N2CCNC(c3ccccc3Br)C2)n1` (single isomer, unassigned) [Compound 111, (R/S)-6-(3-(2-bromophenyl)piperazin-1-yl)-N4-(cyclopropylmethyl)pyrimidine-2,4-diamine]: the IC50 is 0.5 to 5 µM.

On to `CNc1nc(N)cc(N2CCNC(c3ccccc3Br)C2)n1` (single isomer, unassigned) [Compound 113, (R/S)-6-(3-(2-bromophenyl)piperazin-1-yl)-N2-methylpyrimidine-2,4-diamine], for which the IC50 lay within 0.5 to 5 µM.

In the case of `Nc1cc(N2CCCC(c3cnc4ccccn34)C2)nc(N)n1` (single isomer, unassigned) [Compound 115, (S/R)-6-(3-(imidazo[1,2-a]pyridin-3-yl)piperidin-1-yl)pyrimidine-2,4-diamine], the IC50 is > 5 µM.

For `Nc1nc(NC2CC2)cc(N2CCNC(c3ccccc3Br)C2)n1` (single isomer, unassigned) [Compound 121, (R/S)-6-(3-(2-bromophenyl)piperazin-1-yl)-N4-cyclopropylpyrimidine-2,4-diamine], the IC50 was > 5 µM.

For `CNc1cc(N2CCCC(c3cnc4ccccn34)C2)nc(C(C)C)n1` (single isomer, unassigned) [Compound 125, (S/R)-6-(3-(imidazo[1,2-a]pyridin-3-yl)piperidin-1-yl)-2-isopropyl-N-methylpyrimidin-4-amine], the IC50 was 0.5 to 5 µM.

For `CNc1cc(N2CCCC(c3cnc4ccccn34)C2)nc(C(C)C)n1` (single isomer, unassigned) [Compound 126, (R/S)-6-(3-(imidazo[1,2-a]pyridin-3-yl)piperidin-1-yl)-2-isopropyl-N-methylpyrimidin-4-amine], the IC50 is < 0.5 µM.

Regarding `CNc1cc(N2CCNC(c3ccccc3)C2)nc(N)n1` (single isomer, unassigned) [Compound 128, (R/S)-N4-methyl-6-(3-phenylpiperazin-1-yl)pyrimidine-2,4-diamine], the IC50 is > 5 µM.

As to `Nc1cc(N2CCOC(c3cnc4ccccn34)C2)nc(N)n1` (single isomer, unassigned) [Compound 137, (S/R)-6-(2-(imidazo[1,2-a]pyridin-3-yl)morpholino)pyrimidine-2,4-diamine], the IC50 was > 5 µM.

In the case of `CC(C)c1nc(N)cc(N2CCCC(c3cnc4ccccn34)C2)n1` (single isomer, unassigned) [Compound 141, R or S-6-(3-(imidazo[1,2-a]pyridin-3-yl)piperidin-1-yl)-2-isopropylpyrimidin-4-amine], the IC50 is < 0.5 µM.

With `CC(C)c1nc(N)cc(N2CCCC(c3cnc4ccccn34)C2)n1` (single isomer, unassigned) [Compound 142, R or S-6-(3-(imidazo[1,2-a]pyridin-3-yl)piperidin-1-yl)-2-isopropylpyrimidin-4-amine], the IC50 was < 0.5 µM.

In the case of `CN1CCN(c2cc(N)nc(N)n2)CC1c1ccccc1Br` (single isomer, unassigned) [Compound 143, (R/S)-6-(3-(2-bromophenyl)-4-methylpiperazin-1-yl)pyrimidine-2,4-diamine], the IC50 is < 0.5 µM.
